Reference: patent US10017481B2, “Conformationally constrained, fully synthetic macrocyclic compounds” (POLYPHOR AG, priority 2012, dated 2018)
Blank lines part the entries; values can stand above or below the molecule they belong to.

How the values were obtained:
[1] = target: T1, Thyrotropin-releasing hormone receptor (TRH receptor) (Homo sapiens, UniProt P34981); assay: Ca2+ flux (FLIPR) assay, TRH receptor, agonist/antagonist mode; type: cell-based; conditions: antagonist mode
T1 construct: expressed in transfected cells; host or cells: Ca2+ optimized hematopoietic cell lines (rat)
T1 sequence (P34981 1-398): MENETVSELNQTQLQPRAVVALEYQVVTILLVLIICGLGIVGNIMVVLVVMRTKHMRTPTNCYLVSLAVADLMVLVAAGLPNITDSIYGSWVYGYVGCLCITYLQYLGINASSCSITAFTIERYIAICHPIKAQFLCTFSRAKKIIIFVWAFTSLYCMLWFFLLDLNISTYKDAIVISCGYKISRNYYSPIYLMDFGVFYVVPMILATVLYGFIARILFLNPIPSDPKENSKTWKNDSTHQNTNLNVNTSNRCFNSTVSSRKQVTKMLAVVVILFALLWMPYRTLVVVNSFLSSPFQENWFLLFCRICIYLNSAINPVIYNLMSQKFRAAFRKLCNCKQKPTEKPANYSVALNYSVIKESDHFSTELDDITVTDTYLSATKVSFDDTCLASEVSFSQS
Experimental: Biological and Pharmacological Methods 1. Ca^2+ Flux Assays for the GPCRs Oxytocin Receptor (OT Receptor), Thyrotropin-Releasing Hormone Receptor (TRH Receptor) and Bombesin Receptor Subtype 3 (BB3 Receptor)
Assays were performed on a FLIPR^TETRA fluorometric imaging plate reader (Molecular Devices) with ScreenWorks Version 2 (Molecular Devices) as device operating and data analysis software.
Dose dependent agonist and antagonist activities were determined. Percentage activation and percentage inhibition values were determined.
Percentage activation was determined upon initial addition of the sample compounds followed by 10 minutes' incubation at 25° C. Following compound incubation, reference agonists were added at EC80 to determine percentage inhibition.
Reference agonists were purchased from reputable commercial vendors and prepared according to each ligand's specifications. All handling of ligands were done to ensure proper control throughout the experiments.
Example compounds were weighed on a Microbalance (Mettler MX5) and dissolved in 100% DMSO to a final concentration of 2.5 mM and subsequently diluted into the assay buffer.
The assay buffer was a supplemented HBSS (Hank's Balanced Salt Solution). HBSS was supplemented with 20 mM HEPES (4-(2-hydroxyethyl)-piperazin-1-ethansulfonic acid) and 2.5 mM Probenecid (Sigma P8761).
GPCR assays were performed using Ca^2+ optimized hematopoietic cell lines (rat) with cultures never exceeding 90% confluency. Cells were harvested and seeded (from cultures at less than 90% confluency) at 50000 cells/well for a 96-well plate (12500 cells/well for 384). After seeding, the assay plates were incubated for 45 minutes at room temperature. After room temperature incubation, the assay plates were incubated at 37° C. 5% CO2 for 24 hours prior to assaying.
All GPCR assays were performed using Fluo-8 Ca^2+ dye.
Ca^2+ dye was prepared at 1× dye concentration in GPCR assay buffer. After 24 hours of incubation, cells were washed with GPCR assay buffer, and then Ca^2+-dye (100 μL/well) was added.
The plates were incubated for 90 minutes at 30° C. 5% CO2 prior to FLIPR assay.
Compound plates were prepared to add 50 μL/well during the agonist assay mode. During the FLIPR assay, 50 μL/well from the compound plate was diluted 3-fold into the existing 100 μL/well from the dye loading step. Therefore all compounds were prepared as 3× the final concentration desired in the assay.
After completion of the first single addition assay run, assay plate was removed from the FLIPR Tetra and placed at 25° C. for 7 minutes before antagonist assay.
Using the EC80 values determined during the agonist assay, all pre-incubated sample compound and reference antagonist (if applicable) wells were stimulated at the EC80 of the reference agonist. As reference ligands for these assays their obvious natural ligands oxytocin (OT), thyrotropin-releasing hormone (TRH) and bombesin (6-14) [BN(6-14)] were used.
After the addition of the reference agonist fluorescence was monitored for 180 sec using FLIPR Tetra.
From the FLIPR data, with negative control correction enabled, the maximum statistic for each well was exported and percentage activation relative to Emax control was calculated.

[2] = target: T2, human leukotriene B4 receptor (LTB4R) (Homo sapiens, UniProt Q15722); assay: Human LTB4 receptor cell-based assay (CHO mito-i-Photina, flash luminescence); conditions: antagonist mode
T2 construct: host or cells: CHO mito-i-Photina cells
T2 sequence (Q15722 whole entry): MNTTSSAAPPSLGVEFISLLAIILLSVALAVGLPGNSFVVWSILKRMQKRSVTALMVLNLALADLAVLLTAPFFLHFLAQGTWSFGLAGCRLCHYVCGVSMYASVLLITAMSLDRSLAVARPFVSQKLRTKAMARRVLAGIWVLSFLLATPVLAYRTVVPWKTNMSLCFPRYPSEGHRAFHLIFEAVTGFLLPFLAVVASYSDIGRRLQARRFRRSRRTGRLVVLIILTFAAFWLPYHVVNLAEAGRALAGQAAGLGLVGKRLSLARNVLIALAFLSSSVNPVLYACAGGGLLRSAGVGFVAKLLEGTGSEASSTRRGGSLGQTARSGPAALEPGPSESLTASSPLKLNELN
From the text: 3. Human LTB4 Receptor Cell-Based Assay
CHO mito-i-Photina® cells (Axxam SpA) stably expressing the human leukotriene B4 receptor (LTB4R) were used for monitoring activation of the target LTB4R, a GPCR (Gαq), by measuring the flash luminescence of Ca^2+ sensitive photoprotein as reporter system with FLIPR^TETRA screening instrumentation (Molecular Devices) upgraded with an ICCD Camera (MDC). For data quality check and data analysis a Genedata Screener 10.0.3 was used, and for curve fitting of reference agonist and antagonist GraphPad Prism Software.
The reference agonist LTB4 and antagonist U-75302 were purchased from reputable commercial vendors and prepared according to each ligand's specifications. All handling of ligands were done to ensure proper control throughout the experiments.
The steps of the implemented workflow and data analysis are mainly as follows:
mito-1-Photina cells are seeded (10000 c/w in 384 MTP; in complete medium 25 μL/well) for 24 hours, removed from the incubator, equilibrated at room temperature for 1 h, freed from the growth medium, loaded with 30 μL/well of Tyrode's buffer containing 10 μM coelenterazine, and incubated for 3 hours at rt.
All compounds were tested at 10 μM with triplicate data points.
After incubation, the volume in all the wells is flattened to 20 μL by aspiration with CyBi®-Vario pipettor. The First Injection (10 μL of test compounds or reference antagonist U-75302 in Tyrode's buffer+DMSO 0.5%) is performed by the FLIPR^TETRA and the kinetic response is monitored over a period of 120 seconds. Incubation at rt for 10 min. is followed by the Second Injection (15 μL of LTB4 at EC80 in Tyrode's buffer) and monitoring of the kinetic response over a period of 120 seconds.
The possible kinetic response is divided into two distinct phases: Monitoring the kinetic response after the First Injection is indicated as Compound Addition (CA) and measures the agonistic activity of compounds; monitoring the kinetic response after the Second Injection is indicated as Target Activation (TA) and measures the antagonistic activity of a compound.
The activity determination (IC50 determination) experiment is performed using LTB4 as agonist (100 nM corresponding to EC80). Selected compound are tested in 8 doses intraplate dose response with quadruplicate data points.

[3] = Plasma stability assay, human plasma; type: in vitro ADME
Outline: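 Compounds at 10 μM were incubated at 37 °C in triplicate in sodium citrate-stabilized plasma (human, or pooled mixed-gender CD-1 mouse). Samples taken at 0–240 min were acetonitrile-quenched and analyzed by HPLC/MS/MS. Remaining peak area as % of t0 gave endpoint stability (%) and half-life (min).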

[4] = Metabolic stability assay, human liver microsomes; type: in vitro ADME; conditions: human microsomes, 10 μM, 37° C.
Outline: (§1)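 Pooled human (50 donors, mixed gender) or CD-1 mouse microsomes at 1 mg/mL protein, 10 μM compound, 100 mM potassium phosphate with NADPH-regenerating system, 37 °C in duplicate. Samples at 0, 5, 10, 20, 60 min analysed by HPLC/MS/MS; turnover as % of 0-min value and T½ (min) calculated.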

[5] = Metabolic stability assay, CD-1 mouse microsomes; type: in vitro ADME; conditions: CD-1 mouse microsomes, 10 μM, 37° C.
Outline: as §1

- inhibition at 10 µM [1]: 29%
Structure (SMILES): O=C(Cn1ccnc1)N[C@H]1C[C@H]2COc3cccc(c3)-c3ccccc3C(=O)NCC[C@@H](NC(=O)Cc3cccc4ccccc34)C(=O)N2C1 [Ex. 332, 2-(1H-imidazol-1-yl)-N-[(12R,16S,18S)-12-{[2-(1-naphthyl)acetyl]amino}-8,13-dioxo-20-oxa-9,14-diazatetracyclo[19.3.1.0^2,7.0^14,18]pentacosa-1(25),2,4,6,21,23-hexaen-16-yl]acetamide]

- inhibition at 10 µM [1]: 40%
Structure (SMILES): O=C(CN1CCCC1)N[C@H]1C[C@H]2COc3cccc(c3)-c3ccccc3C(=O)NCC[C@@H](NC(=O)Cc3cccc(Cl)c3)C(=O)N2C1 [Ex. 334, 2-(3-chlorophenyl)-N-[(12R,16S,18S)-8,13-dioxo-16-{[2-(1-pyrrolidinyl)acetyl]amino}-20-oxa-9,14-diazatetracyclo[19.3.1.0^2,7.0^14,18]pentacosa-1(25),2,4,6,21,23-hexaen-12-yl]acetamide]

Continued, molecule first:

Structure (SMILES): O=C(CN1CCCC1)N[C@H]1C[C@H]2COc3cccc(c3)-c3ccccc3C(=O)NCC[C@@H](NC(=O)Cc3cccc4ccccc34)C(=O)N2C1 [Ex. 7, N-[(12R,16S,18S)-8,13-dioxo-16-{[2-(1-pyrrolidinyl)acetyl]amino}-20-oxa-9,14-diazatetracyclo[19.3.1.0^2,7.0^14,18]pentacosa-1(25),2,4,6,21,23-hexaen-12-yl]-2-(1-naphthyl)acetamide]
- IC50 [1]: 1.4 µM
- inhibition at 10 µM [1]: 91%

Structure (SMILES): O=C(Cc1cccc2ccccc12)N[C@@H]1CCNC(=O)c2ccccc2-c2cccc(c2)OC[C@@H]2C[C@H](NC(=O)Nc3cccnc3)CN2C1=O [Ex. 333, N-[(12R,16S,18S)-8,13-dioxo-16-{[(3-pyridinylamino)carbonyl]amino}-20-oxa-9,14-diazatetracyclo[19.3.1.0^2,7.0^14,18]pentacosa-1(25),2,4,6,21,23-hexaen-12-yl]-2-(1-naphthyl)acetamide]
- inhibition at 10 µM [1]: 35%

Structure (SMILES): O=C(CN1CCCC1)N[C@H]1C[C@H]2COc3cccc(c3)-c3ccccc3C(=O)NCC[C@@H](NC(=O)CC3CCCCC3)C(=O)N2C1 [Ex. 335, 2-cyclohexyl-N-[(12R,16S,18S)-8,13-dioxo-16-{[2-(1-pyrrolidinyl)acetyl]amino}-20-oxa-9,14-diazatetracyclo[19.3.1.0^2,7.0^14,18]pentacosa-1(25),2,4,6,21,23-hexaen-12-yl]acetamide]
- inhibition at 10 µM [1]: 34%

Structure (SMILES): O=C(CN1CCCC1)N[C@H]1C[C@H]2COc3cccc(c3)-c3ccccc3C(=O)NCC[C@@H](NC(=O)Nc3cccc4ccccc34)C(=O)N2C1 [Ex. 336, N-[(12R,16S,18S)-12-{[(1-naphthylamino)carbonyl]amino}-8,13-dioxo-20-oxa-9,14-diazatetracyclo[19.3.1.0^2,7.0^14,18]pentacosa-1(25),2,4,6,21,23-hexaen-16-yl]-2-(1-pyrrolidinyl)acetamide]
- IC50 [1]: 8.2 µM
- inhibition at 10 µM [1]: 48%

Structure (SMILES): COc1ccc2c(c1)-c1cccc(c1)C(=O)N(C)[C@H](C(=O)NCc1cccnc1)CCC(=O)N[C@H](C)CO2 [Ex. 50, (10R,15S)-4-methoxy-10,16-dimethyl-12,17-dioxo-N-(3-pyridinylmethyl)-8-oxa-11,16-diazatricyclo[16.3.1.0^2,7]docosa-1(22),2,4,6,18,20-hexaene-15-carboxamide]
- IC50 [2]: 1.97 µM
- inhibition at 10 µM ([2]; 10 μM): 100%
- Plasma Stability 240 min hum [% remain.] ([3]; human plasma, 240 min, 10 μM, 37° C.): 100 % remain.
- half-life at 10 μM ([3]; human, plasma): > 240 min
- half-life at 10 μM ([4]; both sexes, liver microsomes, 1 mg/ml protein, read-out: Metabolic Stability T ½ [min] hum): > 60 min
- Metabolic Stability 60 min hum [% remain.] ([4]; 60 min): 53 % remain.
- Metabolic Stability 60 min mouse/(rat) [% remain.] ([5]; 60 min): 34 % remain.
- half-life at 10 μM ([5]; both sexes, 1 mg/ml protein, read-out: Metabolic Stability T ½ [min] mouse/(rat)): 40 min
